Test results from article PMC11864979, “First-in-class ultralong-target-residence-time p38α inhibitors as a mitosis-targeted therapy for colorectal cancer” (Nature Cancer, 2025).
Several values for one entry are separate records, joined by “and”; a condition that tells them apart may be missing. Equal values may be shown once.

Assays:
[1] = system: PDO8; experiment: cell viability in patient-derived CRC organoids PDO8; format: cell-based, human
Experimental: (§1) For in vitro treatment studies, organoids were mechanically dissociated and digested using TrypLE supplemented with 100 µg ml^−1 DNaseI and 10.5 µM Y-27632 dihydrochloride (Invitrogen) at 37 °C. A total of 1,000–2,000 single cells were plated per well in white 96-well plates (Greiner) in culture medium containing 10% GFR Matrigel or Cultrex BME. The treatment with doxycycline (5 µg ml^−1), pharmacological inhibitors or corresponding volumes of DMSO was started 24 h after plating. Doxycycline was obtained from Sigma-Aldrich. […] Cell viability was measured by means of CellTiter-Glo 3D or CellTiter-Glo 2.0 reagent (Promega) according to the manufacturers’ instructions and the Infinite M Plex reader (Tecan, i-control version 3.9.1 software). Results were normalized to vehicle (DMSO) or to shNC. For cell-doubling assays, the cell number was quantified at the corresponding time points using Guava EasyCyte flow cytometer (Luminex, CytoSoft v5.2 software).

[2] = system: subcutaneous KAP CRCs; experiment: treatment of subcutaneous KAP tumors in wild-type mice; format: in vivo, mouse; conditions: for Tumor volume: single tumors, Fig. 5i
Experimental: Subcutaneous injection, splenic seeding or cecum injection of organoids was performed in 8–10-week-old C57BL/6 N/Crl, Rag2^−/− (B6.Cg-Rag2^tm1.1Cgn/J), or CB17 Scid beige (CB17.Cg-Prkdc^scidLyst^bg-J/Crl) mice, obtained from Charles River. The organoids were dissociated into single cells, washed with PBS and injected in a 1:1 mixture of PBS and Matrigel. For murine organoids, 1 × 10^5 cells were injected into the left and right flanks or the spleen capsule and 2 × 10^6 cells were injected into the cecum wall. For human organoids, 4 × 10^5 cells were injected into the flanks of CB17 Scid beige mice. For splenic seeding and cecum injection, mice were anaesthetized using ketamine (100 mg kg^−1, intraperitoneally) and xylazin (10 mg/kg, intraperitoneally) in NaCl and a small laparotomy below the thorax was performed.
No mice were excluded during treatment studies.

[3] = system: KAP^2D cells; experiment: quantification of viable KAP^2D cells over time (cell-doubling assay); format: cell-based, mouse; conditions: Fig. 4i
Experimental: The treatment with doxycycline (5 µg ml^−1), pharmacological inhibitors or corresponding volumes of DMSO was started 24 h after plating. […] Cell viability was measured by means of CellTiter-Glo 3D or CellTiter-Glo 2.0 reagent (Promega) according to the manufacturers’ instructions and the Infinite M Plex reader (Tecan, i-control version 3.9.1 software). Results were normalized to vehicle (DMSO) or to shNC. For cell-doubling assays, the cell number was quantified at the corresponding time points using Guava EasyCyte flow cytometer (Luminex, CytoSoft v5.2 software).

[4] = system: PDO3; experiment: cell viability in patient-derived CRC organoids PDO3; format: cell-based, human; conditions: Fig. 3d, replicates
Experimental: as §1

[5] = system: COLO 205; experiment: cell viability in human CRC cell line COLO 205; format: cell-based
Experimental: To generate KAP^2D cells, KAP organoids were isolated from Matrigel, fragmented by mechanical dissociation and plated without any extracellular matrix on common cell culture dishes. Phoenix-Eco packaging cells (CRL-3214), HCT-15 (CCL-225), HCT 116 (CCL-247), COLO 205 (CCL-222), LS 174T (CL-188), RKO (CRL-2577) and HT-29 (HTB-38) were obtained from the American Type Culture Collection. The cells were cultured at 37 °C and 7% CO2 with RPMI (KAP^2D cells) or DMEM (other cell lines), supplemented with 10% FBS and penicillin–streptomycin. KAP^2D cells were authenticated using PCR (Kras locus and Trp53 locus). Phoenix-Eco packaging cells and HCT-15, HCT 116, COLO 205, LS 174T, RKO and HT-29 cells were authenticated by the provider using short tandem repeat profiling. No commonly misidentified cell lines were used. Mycoplasma contamination was excluded by a PCR-based analysis.
as §1

[6] = system: PDO1; experiment: cell viability in patient-derived CRC organoids PDO1; format: cell-based, human; conditions: Fig. 3b, replicates
Experimental: as §1

[7] = system: PDO12; experiment: cell viability in patient-derived CRC organoids PDO12; format: cell-based, human; conditions: PDO12, 0.5 µM, 4 d
Experimental: as §1

[8] = system: BAP organoids; experiment: cell viability in BAP organoids; format: cell-based, mouse
Experimental: A total of 1,000–2,000 single cells were plated per well in white 96-well plates (Greiner) in culture medium containing 10% GFR Matrigel or Cultrex BME. The treatment with doxycycline (5 µg ml^−1), pharmacological inhibitors or corresponding volumes of DMSO was started 24 h after plating. Doxycycline was obtained from Sigma-Aldrich. […] Results were normalized to vehicle (DMSO) or to shNC. For cell-doubling assays, the cell number was quantified at the corresponding time points using Guava EasyCyte flow cytometer (Luminex, CytoSoft v5.2 software).

[9] = system: KAP^2D cells; experiment: western blot analysis of p38α signaling in KAP^2D cells; format: cell-based, mouse; conditions: 1 µM, 1 day
Experimental: Proteins were extracted from cells and organoids using radioimmunoprecipitation assay extraction buffer (50 mM Tris pH 8.0, 150 mM NaCl, 1% Triton X-100, 0.5% sodium deoxycholate, 0.1% SDS, 5 mM EDTA and 1 mM EGTA) supplemented with protease and phosphatase inhibitors (cOmplete and PhosSTOP, Roche). Protein concentrations were measured using the DC (detergent compatible) Protein Assay (Bio-Rad). Briefly, 20–30 µg of protein was separated by SDS–PAGE and transferred onto PVDF membranes (Immobilon-P, Millipore). Membranes were blocked in 5% BSA and Tris-buffered saline (TBS)–Tween buffer and then incubated with primary antibodies overnight at 4 °C and with horseradish peroxidase-conjugated secondary antibodies for 1 h at room temperature. All used antibodies and dilutions are listed in the Nature Portfolio Reporting Summary. The blots were visualized using the ChemiDoc MP Imaging System (BIO-RAD) and ImageLab version 5.2.1 software. Vinculin and β-actin were used as loading controls.

[10] = system: PDO4; experiment: cell viability in patient-derived CRC organoids PDO4; format: cell-based, human; conditions: Fig. 3e, replicates
Experimental: as §1

[11] = system: PDO2; experiment: cell viability in patient-derived CRC organoids PDO2; format: cell-based, human; conditions: Fig. 3c, replicates
Experimental: as §1

SMILES: CNC(=O)c1ccc2c(c1)C(=O)c1ccc(Nc3ccc(F)c(NC(=O)C4CC4)c3)cc1CC2 [Compound 2015]
- viability at 1 µM ([1]; Homo sapiens, 96 h, PDO8, 1 µM, 4 days): 47.8%
- Cell viability (%) ([1]; PDO8, 0.5 µM, 4 d, 0.5 µM): 62.35% and 47.16% and 31.30%
- Cell viability (%) ([1]; PDO8, 1 µM, 4 days, 1 µM): 40.47% and 33.30%
- subcutaneous KAP tumor development (in words) ([2]; 20 mg kg^−1 daily, oral gavage): pronounced remission of CRC
- Tumor volume ([2]; 2 d of treatment): 87.5 mm³ and 75.0 mm³ and 126.0 mm³ and 144.0 mm³
- Tumor volume ([2]; 4 d of treatment): 48.0 mm³ and 56.0 mm³ and 40.0 mm³
- Number of cells ([3]; 0 h of treatment): 41307.05 and 44263.95 and 43595.63 and 48502.24 and 40389.64
- Number of cells ([3]; 12 h of treatment): 56623.49 and 67064.09 and 57491.63 and 61648.82 and 68603.21 and 63323.28
- Number of cells ([3]; 24 h of treatment): 66705.14 and 74668.97 and 68938.05 and 94046.77 and 77517.08 and 74107.42
- Number of cells ([3]; 36 h of treatment): 95730.63 and 106064.51 and 93579.45 and 106339.60 and 110499.20 and 87144.95
- Number of cells ([3]; 48 h of treatment): 89649.37 and 121264.28 and 95171.59 and 108694.60 and 121883.40 and 116976.50
- Number of cells ([3]; 60 h of treatment): 136203.08 and 127468.86 and 129997.76 and 163066.30 and 164108.30 and 135189.10
- Cell viability (%) ([4]; 0,5 µM, 5 µM): 69.11% and 51.45%
- Cell viability (%) ([4]; 0,25 µM, 25 µM): 56.63% and 78.13% and 87.76%
- Cell viability (%) ([4]; 1 µM): 56.28% and 48.78%
- viability at 5 µM ([4]; Homo sapiens, 72 h, 0,5 µM): 50.1%
- viability at 1 µM ([4]; Homo sapiens, 72 h, 1 µM): 53%
- COLO 205 Cell viability (%) ([5]; 0.0137 µM, 4 d): 86.20% and 87.62% and 93.54% and 93.70% and 89.28%
- COLO 205 Cell viability (%) ([5]; 0.0412 µM, 4 d): 89.23% and 86.13% and 86.46% and 84.55% and 84.12%
- COLO 205 Cell viability (%) ([5]; 0.1235 µM, 4 d): 81.05% and 83.81% and 80.44% and 77.94% and 85.49% and 51.55%
- COLO 205 Cell viability (%) ([5]; 1.1111 µM, 4 d): 10.16% and 10.58% and 11.54% and 5.54% and 4.72% and 3.60%
- COLO 205 Cell viability (%) ([5]; 3.3333 µM, 4 d): 11.93% and 11.65% and 12.34% and 6.53% and 6.09% and 5.93%
- COLO 205 Cell viability (%) ([5]; 10.0000 µM, 4 d): 14.19% and 14.06% and 18.78% and 17.19% and 10.60%
- IC50 ([5]; Homo sapiens, 96 h, COLO 205, 4 d of treatment): 151 nM
- viability at 0.0137 µM ([5]; Homo sapiens, COLO 205, 96 h, 0.0137 µM, 4 d): 88.4%
- viability at 0.0412 µM ([5]; Homo sapiens, COLO 205, 96 h, 0.0412 µM, 4 d): 88.8%
- viability at 10 µM ([5]; Homo sapiens, COLO 205, 96 h, 10.0000 µM, 4 d, read-out: COLO 205 Cell viability (%)): 13.9%
- Cell viability (%) ([6]; 0.5 µM): 8.84% and 9.77%
- Cell viability (%) ([6]; 1 µM): 9.82% and 5.19%
- viability at 0.5 µM ([6]; Homo sapiens, 0.5 µM): 10.1%
- viability at 1 µM ([6]; Homo sapiens, 1 µM): 7.92%
- viability at 0.5 µM ([7]; Homo sapiens, 96 h, read-out: Cell viability (%)): 40%
- Cell viability (%) ([7]; 0.5 µM): 54.51% and 54.94%
- therapeutic effect in BAP organoids (in words) ([8]; 4 days): increased responsiveness
- Cell viability (%) ([8]; Fig. 2j, 0,5 µM, replicates, 5 µM): 18.53% and 25.34%
- Cell viability (%) ([8]; Fig. 2j, 0,25 µM, replicates): 71.10% and 78.07% and 119.22%
- Cell viability (%) ([8]; Fig. 2j, 1 µM, replicates): 28.06% and 32.78%
- viability at 5 µM ([8]; Mus musculus, Fig. 2j, 0,5 µM, replicates): 21.1%
- viability at 1 µM ([8]; Mus musculus, Fig. 2j, 1 µM, replicates): 29.7%
- MK2^T334 phosphorylation (in words) [9]: strongly reduced
- Cell viability (%) ([10]; 0,5 µM, 5 µM): 13.84% and 14.01%
- Cell viability (%) ([10]; 0,25 µM, 25 µM): 62.38% and 62.93%
- Cell viability (%) ([10]; 1 µM): 11.63% and 11.83%
- viability at 25 µM ([10]; Homo sapiens, 0,25 µM): 60%
- viability at 1 µM ([10]; Homo sapiens, 1 µM): 11.2%
- Cell viability (%) ([11]; 0,5 µM, 5 µM): 17.11% and 9.01% and 7.93%
- Cell viability (%) ([11]; 0,25 µM): 30.33% and 26.25%
- Cell viability (%) ([11]; 1 µM): 8.07% and 8.23%
- viability at 1 µM ([11]; Homo sapiens, 1 µM): 10.5%
